The record followed here is patent US20050256056A1, “Peptide inhibitors of HIV” (priority 2003, published 2005).

Read-outs that look alike come from different tables or passages of the source. Non-standard residues stand in square brackets, D forms with d. Residues, ends and D or L forms follow the SMILES beside them. Some results are limits rather than exact numbers.

One assay relates to HIV-1 NL4-3. Put plainly: focal infectivity assay, inhibition of HIV-1 NL4-3 in HeLa H1-JC.37 cells. It counts as cell-based. An excerpt: The term “EC50” refers to the concentration of peptide that inhibits 50% viral activity, including infective activity, as measured in an in vitro assay, including a focal infectivity assay (described in Pincus, et al. Biotechniques 10:336 (1991)).
Peptides and peptide analogs that bind to an HIV target protein of interest are then screened for their effectiveness in inhibiting HIV activity in vitro. One assay for evaluating HIV inhibiting activity in vitro is a focal infectivity assay, described by Pincus, et al. Biotechniques 10:336 (1991). Preferred peptides and peptide analogs will inhibit HIV activity in vitro at a concentration of about 50 μM or less, more preferably at about 40 μM, 30 μM, 25 μM or 20 μM or less, and more preferably at about 15 μM, 10 μM or 5 μM or less.
After re-synthesis of 16 of these as soluble peptides, 13 were tested for ability to inhibit the NL4-3 clone of HIV-1 (the other 3 were insoluble). For these studies a focal infectivity assay was carried out using HeLa H1-JC.37 cells. H1-JC.37 cells are HeLa cells that naturally express the CXCR4 receptor and that have been engineered to express CD4 and CCR5 receptors (Platt, et al. J. Virol. 72:2855 (1998)). Dose-response curves were performed in triplicate experiments with 6 determinations per drug concentration in each experiment. None of these peptides inhibited growth of HeLa H1-JC.37 cells at the concentrations tested (up to 100 μM). […] The purified peak fraction was re-tested for anti-HIV activity, and the EC50 was determined to be 8 μM. The identity of the biologically active peptide has been confirmed with mass spectrometry.

The next assay concerns the target T1, ogp140 (Human immunodeficiency virus type 1 group M subtype B, UniProt P19550).
T1 construct: ogp140, which contains gp120 and the ectodomain of the gp41 subunit in a trimeric form; purchased Chiron Corporation (gift from Dr. Indresh Srivastava, not a purchase)
It counts as binding, HIV-1 SF162 strain. Particulars: Table 2 peptides re-synthesized on beads.

T1 sequence (P19550 32-675): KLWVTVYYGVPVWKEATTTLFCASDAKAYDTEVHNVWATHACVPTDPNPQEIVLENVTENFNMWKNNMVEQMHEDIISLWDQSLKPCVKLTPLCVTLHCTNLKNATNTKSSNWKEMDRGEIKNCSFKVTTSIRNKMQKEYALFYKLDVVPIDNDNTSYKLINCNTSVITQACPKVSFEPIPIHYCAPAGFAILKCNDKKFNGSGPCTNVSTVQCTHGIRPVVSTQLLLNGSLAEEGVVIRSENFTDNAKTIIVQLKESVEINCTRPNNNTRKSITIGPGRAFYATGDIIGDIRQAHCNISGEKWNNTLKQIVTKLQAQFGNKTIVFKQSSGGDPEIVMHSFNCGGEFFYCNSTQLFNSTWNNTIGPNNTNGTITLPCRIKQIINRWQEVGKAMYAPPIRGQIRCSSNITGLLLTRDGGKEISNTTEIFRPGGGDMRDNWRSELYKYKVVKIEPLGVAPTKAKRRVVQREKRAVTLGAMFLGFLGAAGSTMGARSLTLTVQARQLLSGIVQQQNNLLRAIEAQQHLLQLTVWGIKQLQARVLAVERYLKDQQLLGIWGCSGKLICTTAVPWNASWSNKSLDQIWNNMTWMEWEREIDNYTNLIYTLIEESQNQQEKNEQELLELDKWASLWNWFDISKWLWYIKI
Protocol for ogp140: The optimal concentrations of glycoproteins for our screening assays were determined to be 0.25-1.25 μg/ml for ogp140 and 1-5 μg/ml for gp120. In order to visualize beads with bound ogp140 or gp120, these proteins were biotinylated so that an enzyme-linked colorimetric assay could be used to identify positive beads. Biotinylation was performed with Sulpho-NHS-biotin at a 5:1 molar ratio of biotin to protein. Reactions were carried out for both 3 minutes and 10 minutes to obtain different levels of biotinylation and were stopped with 2 M Tris-HCl, pH 7.4. The proteins were dialyzed for 4-5 hr to remove excess biotin.
The peptides of Table 2 were re-synthesized on beads.
These secondary libraries were screened with ogp140 under higher stringency (lower protein concentrations of both ogp140 and streptavidin-alkaline phosphatase (ST-AP)). The concentrations of ogp140 used in this screen were 0.06 mg/mL and 0.3 mg/mL. These concentrations are 4-fold lower than those used in the original screen (0.25 mg/mL and 1.25 mg/mL). The amount of ST-AP was lowered from 1:15,000 in the original screen to 1:25,000 in this screen. Approximately 75,000 beads from each library were screened.
From the 34 positive beads of the 8-mer library, the 12 darkest beads were selected for sequence analyses and the results are in Table 3.

Turning to `CC[C@@H](C)[C@@H](NC(=O)[C@@H](Cc1c[nH]c2ccccc12)NC(=O)[C@@H]1CCCN1C(=O)[C@@H](Cc1ccc(O)cc1)NC(=O)[C@@H](CO)NC(=O)[C@H]1CCCN1C(=O)[C@@H](C)N)C(=O)N[C@H](CCCNC(=N)N)C(=O)O` [compound 1] (H-[dA][dP][dS][dY]P[dW][dI][dR]-OH; N-terminus and C-terminus assumed), in the assay with HIV-1 NL4-3 (NL4-3), the half-maximal effective concentration (EC50) was more than 100 µM.
On the same count and under the same terms, the same measure for `CSCC[C@@H](NC(=O)[C@H](N)Cc1c[nH]cn1)C(=O)N[C@H](CC(N)=O)C(=O)N1CCC[C@H]1C(=O)N[C@H](Cc1ccccc1)C(=O)N[C@H](Cc1ccc(O)cc1)C(=O)N[C@H](Cc1ccc(O)cc1)C(=O)N[C@H](CCC(N)=O)C(=O)O` [compound 13] (H-[dH][dM][dN]P[dF][dY][dY][dQ]-OH; N-terminus and C-terminus assumed): more than 100 µM.
For the compound `CC(C)[C@@H](NC(=O)[C@@H](Cc1c[nH]cn1)NC(=O)[C@@H](CC(=O)O)NC(=O)[C@@H](Cc1ccccc1)NC(=O)[C@@H]1CCCN1C(=O)[C@@H](CCC(N)=O)NC(=O)[C@@H](Cc1ccc(O)cc1)NC(=O)[C@H](N)Cc1ccc(O)cc1)C(=O)O` [compound 14] (H-[dY][dY][dQ]P[dF][dD][dH][dV]-OH; N-terminus and C-terminus assumed), a half-maximal effect in the assay with HIV-1 NL4-3 (NL4-3) (EC50) was put at 55 µM.
With `CC[C@@H](C)[C@@H](NC(=O)[C@@H](Cc1c[nH]c2ccccc12)NC(=O)[C@@H]1CCCN1C(=O)[C@@H](Cc1ccc(O)cc1)NC(=O)[C@@H](CO)NC(=O)[C@H]1CCCN1C(=O)[C@H](N)CCSC)C(=O)N[C@H](CCCNC(=N)N)C(=O)O` [compound 16, mpsyPwir] (H-[dM][dP][dS][dY]P[dW][dI][dR]-OH; N-terminus and C-terminus assumed), the 50% effective concentration (EC50) with HIV-1 NL4-3 (HPLC-purified peak fraction re-tested, read-out: EC50 of purified peak fraction, anti-HIV activity) worked out at 8 µM; with HIV-1 NL4-3 (NL4-3), 17 µM. Also, the “staining intensity of peptide beads in binding assays with ogp140” value on ogp140 is “stain more intensively”.

Broadly, the EC50 is the concentration needed to bring the measured effect to its halfway point.
